Tests used:
Assay type in all cases: biochemical
[1] = biological target: T1, NpmA (16S rRNA (m1A1408) methyltransferase) (Escherichia coli, UniProt A8C927); test: in vitro […] subunit [3H]-SAM methylation assay at fixed […]; conditions: read-out: % activity at 1 mM
T1 construct: recombinant NpmA

[2] = biological target: T1, NpmA (16S rRNA (m1A1408) methyltransferase); test: in vitro […] subunit [3H]-SAM methylation filter-binding assay, dose-response; resynthesized and retested
[3] = biological target: T1, NpmA (16S rRNA (m1A1408) methyltransferase); test: in vitro […] subunit [3H]-SAM methylation filter-binding assay, dose-response

T1 sequence (A8C927 whole entry): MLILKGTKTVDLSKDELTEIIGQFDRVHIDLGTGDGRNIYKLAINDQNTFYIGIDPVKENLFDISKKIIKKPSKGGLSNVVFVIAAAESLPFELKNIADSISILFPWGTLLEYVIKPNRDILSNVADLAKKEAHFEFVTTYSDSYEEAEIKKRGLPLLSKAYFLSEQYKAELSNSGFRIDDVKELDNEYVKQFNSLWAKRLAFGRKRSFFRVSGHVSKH

Structure (SMILES) | activity at 1000 µM [1] | IC50 [3] | also measured
CC(=O)c1ccc(NC(=O)/C(=C/c2cccc([N+](=O)[O-])c2)NC(=O)c2ccc(C)cc2)cc1 [compound 3] | < 25% |  | 
Cc1ccc(-c2cc(C(=O)N3CCC(c4cc(O)ncn4)CC3)[nH]n2)cc1 [compound 10] | < 25% |  | 
COc1cc(C2C(C(=O)OCCc3ccccc3)=C(C)NC3=C2C(=O)CC(c2ccccc2)C3)cc(Br)c1O (stereo not drawn) [compound 20] | < 25% |  | 
CC(=O)c1ccc(NC(=O)/C(=C/c2cccc([N+](=O)[O-])c2)NC(=O)c2ccccc2Cl)cc1 [compound 23, (Z)-N-(3-((4-Acetylphenyl)-amino)-1-(3-nitrophenyl)-3-oxoprop-1-en-2-yl)-2-chlorobenz-amide] |  |  | IC50 [2]: 76 µM
Cc1ccc(NC(=O)C(=Cc2cccc([N+](=O)[O-])c2)NC(=O)c2ccccc2I)cc1 [compound 45] |  | 99 µM | 
Cc1ccc(NC(=O)C(=Cc2cccc([N+](=O)[O-])c2)NC(=O)c2ccc(Cl)cc2Cl)cc1 [compound 47] |  | 68 µM | 
